US9119856B1, “Method for treating cancer using a dihydropyrimidine derivative” (KING SAUD UNIVERSITY, priority 2015, dated 2015)
“Also recorded” adds a separate entry of the source.

Assays:
[1] = test system: lovo colon cancer cells; assay: Side population inhibition on lovo colon cancer cells; assay type: cell-based
Procedure: The relationship of compound structure and compound activity of various Formula I compounds, i.e., 5-benzoyl-3,4-dihydropyrimidin-2(1H)-one/thione compounds, on inhibition of side population cancer stem cells was studied. The various 5-benzoyl-3,4-dihydropyrimidin-2(1H)-one/thione compounds and the corresponding inhibition activity are provided below in Table 1.
The newly synthesized compounds DHP (1-9) were evaluated for side population inhibition on lovo colon cancer cells (%) at 10 μM concentration. […] It was noted that most of the compounds which include a methoxy group at R1 were active. The methoxy group seems to help the molecule to align in protein pocket. Compounds with an oxygen atom at R2 were also active. It seems that the oxygen atom at position R2 also plays some important role in binding with protein pocket.
For DCV staining, cells were pelleted and suspended in DMEM cell culture medium at a concentration of 1*10^6 cells/ml. DCV (Invitrogen Molecular Probes®, Eugene, Oreg.) was added at a final staining concentration of 10 μM, as this concentration gave optimal separation between SP and non SP cells. PI stained was used to exclude dead cells. Functionally, to gate only side population cells, Verapamil 200 μM or FTC 10 μg/ml was used. All analyses were performed on a FACS LSRII (BD Biosciences). […]

[2] = test system: breast cancer cells; assay: Self-renewal ability of breast cancer cells; assay type: cell-based
[3] = Apoptosis induction in vitro; assay type: cell-based
[4] = target: T1, ABCG2 (Homo sapiens, UniProt Q9UNQ0); assay: Mitoxantrone accumulation in MCF-7 cells; assay type: cell-based
T1 construct: endogenous in cells; host or cells: MCF-7 cells
T1 sequence (Q9UNQ0 1-655): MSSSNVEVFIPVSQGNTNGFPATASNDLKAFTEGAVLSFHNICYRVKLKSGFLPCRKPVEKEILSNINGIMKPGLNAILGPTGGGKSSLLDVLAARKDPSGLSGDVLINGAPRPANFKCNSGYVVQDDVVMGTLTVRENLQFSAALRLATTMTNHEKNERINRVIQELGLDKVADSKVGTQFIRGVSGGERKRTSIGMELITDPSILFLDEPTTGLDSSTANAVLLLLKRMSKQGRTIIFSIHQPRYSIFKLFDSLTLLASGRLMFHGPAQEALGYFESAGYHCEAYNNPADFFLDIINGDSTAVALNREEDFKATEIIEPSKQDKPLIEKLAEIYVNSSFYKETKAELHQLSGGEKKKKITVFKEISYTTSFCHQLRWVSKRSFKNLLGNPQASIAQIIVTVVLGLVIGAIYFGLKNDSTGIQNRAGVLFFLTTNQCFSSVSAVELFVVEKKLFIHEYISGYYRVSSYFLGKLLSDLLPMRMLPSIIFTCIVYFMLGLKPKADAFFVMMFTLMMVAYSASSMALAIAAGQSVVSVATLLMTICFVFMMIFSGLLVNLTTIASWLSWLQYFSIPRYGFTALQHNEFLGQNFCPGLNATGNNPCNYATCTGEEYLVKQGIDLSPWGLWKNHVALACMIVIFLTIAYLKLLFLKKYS

[5] = test system: MCF-7 cells; assay: Flow cytometric DNA cell cycle analysis; assay type: cell-based, human; details: DHP-5 treated vs untreated
Procedure: 2×10^6 cells were fixed in 1 ml ethanol (70%) for 60 min. at room temperature. Harvested cells were resuspended in 1 ml Na citrate (50 mM) containing 250 μg RNase A and incubated at 50° C. for 60 min. Next, cells were resuspended in the same buffer containing 4 μg propidium iodine (PI) and incubated for 30 min. before being analyzed by flow cytometry (Becton Dickinson, San Jose, Calif., USA). The percentage of cells in various cell cycle phases was determined by using Cell Quest Pro software (Becton Dickinson).

[6] = test system: tumor derived cells of LOVO xenograft; assay: Side population analysis of tumor derived cells of LOVO xenograft; assay type: in vivo, Nude mice; details: DHP-5 50 mg/kg for 14 days, Verapamil 200 μM
Procedure: (§1) For DCV staining, cells were pelleted and suspended in DMEM cell culture medium at a concentration of 1*10^6 cells/ml. DCV (Invitrogen Molecular Probes®, Eugene, Oreg.) was added at a final staining concentration of 10 μM, as this concentration gave optimal separation between SP and non SP cells. PI stained was used to exclude dead cells. Functionally, to gate only side population cells, Verapamil 200 μM or FTC 10 μg/ml was used. All analyses were performed on a FACS LSRII (BD Biosciences). Debris and cell clusters were excluded during side-scatter and forward-scatter analyses.
A side population analysis of tumor derived cells of LOVO xenograft that were untreated (FIG. 4A), treated with side population inhibitor reference drug Verapamil 200 μM (FIG. 4B), and side population analysis of tumor cells derived from animals treated by DHP-5 50 mg/kg for 14 days.
Nude mice (Jackson Laboratories, Bar Harbor, Me., USA) were injected with 4*106 cells of MDA-MB-468 and LOVO subcutaneously in the right flank, and tumor size was measured weekly using a caliper. When the tumor reached approximately 400 mm^3 […], the mice were divided into control treated groups, the treatment including administration of DHP-5 (50 mg/Kg) via intraperitoneal injection daily for 14 days. The general toxicity of the treatment was determined by measuring the total body weight of the treated and control mice. […]

[7] = test system: MDA-MB-468 (breast cancer xenograft); assay: Antitumor activity in mice, MDA-MB-468 breast cancer xenograft; assay type: in vivo, Nude mice; details: 50 mg/Kg intraperitoneal daily for 14 days
Procedure: (§2) Nude mice (Jackson Laboratories, Bar Harbor, Me., USA) were injected with 4*106 cells of MDA-MB-468 and LOVO subcutaneously in the right flank, and tumor size was measured weekly using a caliper. When the tumor reached approximately 400 mm^3 […], the mice were divided into control treated groups, the treatment including administration of DHP-5 (50 mg/Kg) via intraperitoneal injection daily for 14 days. The general toxicity of the treatment was determined by measuring the total body weight of the treated and control mice. The breeding, care and sacrifice of the animals were in accordance with the protocols approved by the Animal Care and Use Committee of the King Faisal Specialist Hospital and Research Centre.
(§3) Tumor growth of MDA-MB-468 (breast cancer xenograft) and LOVO (colon cancer xenograft) was recorded in untreated mice groups and DHP-5 (50 mg/kg) treated mice groups.

[8] = test system: LOVO (colon cancer xenograft); assay: Antitumor activity in mice, LOVO colon cancer xenograft; assay type: in vivo, Nude mice; details: 50 mg/Kg intraperitoneal daily for 14 days
Procedure: as §2, §3

[9] = General toxicity by total body weight of treated mice; assay type: in vivo; details: animal models of breast and colon cancer
Procedure: as §2

[10] = Cell proliferation in vitro; assay type: cell-based
[11] = test system: MCF-7 breast cancer cells; assay: Side population analysis of MCF-7 breast cancer cells (DyeCycle Violet staining); assay type: cell-based, human; details: DHP-5 50, 75 and 100 μM, Verapamil 200 μM
Procedure: as §1

[12] = test system: ABCG2; assay: Immunofluorescence staining of ABCG2 in MCF-7 cells; assay type: cell-based, human

CCOc1ccc(C2NC(=O)NC=C2C(=O)c2cc(OC)c(OC)c(OC)c2)cc1 (stereo not shown) [DHP-5, 4-(4-ethoxyphenyl)-5-(3,4,5-trimethoxybenzoyl)-3,4-dihydropyrimidin-2(1H)-one]
side population inhibition, activity in words ([1]; 10 μM): moderately active
inhibition at 10 µM ([1]; Homo sapiens): 58.8%
self-renewal ability of breast cancer cells [2]: blocking self-renewal ability of breast cancer cells in a dose dependent manner
apoptosis [3]: induced apoptosis
Mitoxantrone accumulation (selective ABCG2 substrate) [4]: increase in Mitoxantrone accumulation
cell cycle phase distribution [5]: increased accumulation of treated cells in G2+M mitosis phase
inhibitory effect on side population cancer stem cells of xenograft tumor cells versus Verapamil [6]: more potent inhibitory effect of DHP-5 on side population cancer stem cells than reference drug Verapamil
tumor growth, MDA-MB-468 breast cancer xenograft [7]: superior efficacy compared to reference drug Doxorubicin; also recorded: shrinking of tumor
tumor growth, LOVO colon cancer xenograft [8]: superior efficacy compared to reference drug Doxorubicin; also recorded: shrinking of tumor
general toxicity [9]: without any sign of general toxicity
cell proliferation [10]: blocked cell proliferation
inhibitory effect on side population cancer stem cells versus Verapamil [11]: more potent inhibitor of side population cells than reference drug Verapamil; also recorded: more potent inhibitory effect of DHP-5 on side population cancer stem cells than reference drug Verapamil
expression of ABCG2 [12]: decreased the expression of ABCG2
